Results taken from patent publication US20090004694A1, “Sequence of Thermotolerant L-Rhamnose Isomerase Gene and Use of the Same” (National University Corporation Kagawa University, priority 2004, published 2009).
Where “and” joins values, the source holds several entries; their conditions need not be identical. Equal values may be shown once. Read-outs that look alike come from different tables or passages of the source.

Key:
[1] = target: T1, L-rhamnose isomerase produced by E. coli (Escherichia coli, UniProt P32170); conditions: cited from earlier work
T1 sequence (P32170 1-419): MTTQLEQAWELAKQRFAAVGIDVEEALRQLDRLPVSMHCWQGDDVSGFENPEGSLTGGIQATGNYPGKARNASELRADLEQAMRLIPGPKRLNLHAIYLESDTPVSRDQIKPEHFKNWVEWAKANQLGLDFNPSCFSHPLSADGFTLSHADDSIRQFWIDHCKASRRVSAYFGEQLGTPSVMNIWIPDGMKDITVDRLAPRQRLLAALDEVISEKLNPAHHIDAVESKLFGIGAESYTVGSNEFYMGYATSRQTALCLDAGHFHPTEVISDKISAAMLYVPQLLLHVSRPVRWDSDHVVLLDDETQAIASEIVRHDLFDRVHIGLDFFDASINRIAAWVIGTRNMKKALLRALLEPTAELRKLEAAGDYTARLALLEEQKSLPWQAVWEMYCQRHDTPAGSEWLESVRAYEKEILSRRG

[2] = Solubility of D-psicose and D-allose in water and alcohols; format: physicochemical
From the text: The principle of the collection by separation will be briefly described. […] D-psicose has a solubility of about 10% in methanol and ethanol, however, D-allose is insoluble in either alcohol. The temperature has an influence on the solubility. The solubility of D-psicose in both alcohols is increased at a high temperature. Further, when the alcohol concentration is high, D-allose is likely to be crystallized. It is a separation technique utilizing the above physical properties. It is a production method of high-purity D-allose in which by allowing an alcohol (ethanol and/or ethanol) to act on, D-allose which is insoluble in the alcohol (ethanol and/or ethanol) is crystallized and the crystal of D-allose is separated.

[3] = tested on: L-rhamnose isomerase produced by Pseudomonas stutzeri LL172 (IPOD FERM BP-08593); test: Substrate specificity (relative activity) of the purified enzyme, cysteine-carbazole method; format: biochemical; conditions: activity against L-rhamnose assumed to be 100%; 50° C., 10 minutes, glycine-NaOH buffer pH 9.0
Procedure: (§1) The method for measuring the substrate specificity (relative activity (%)) will be described.
(§2) A reaction solution having a composition of 50 μl of the purified enzyme solution, 50 μl of 0.05 M of each substrate sugar, 50 μl of 0.01 M manganese chloride and 0.05 M glycine-NaOH buffer (pH 9.0) was used. The reaction was carried out at a reaction temperature of 50° C. for 10 minutes. The produced ketose corresponding to the respective substrates was measured by the cysteine-carbazole method, and the activity that produces 1 μmol of the ketose per minute was measured for the respective substrates.

[4] = tested on: L-rhamnose isomerase derived from Bacillus pallidus strain 14a (IPOD FERM AP-20172); test: as above; format: biochemical; conditions: activity against L-rhamnose assumed to be 100%; 50° C., 10 minutes, glycine-NaOH buffer pH 9.0
Procedure: as §1, §2

[5] = tested on: L-rhamnose isomerase produced by Pseudomonas stutzeri LL172; conditions: cited from earlier work; for effect of chelating agent on activity: coexisting during the measurement of the activity
[6] = tested on: L-rhamnose isomerase derived from Bacillus pallidus strain 14a; test: Effect of metal ion on enzyme activity; format: biochemical; conditions: 1 mM cobalt ion
[7] = cited from earlier work
[8] = Optimal pH and working pH of L-rhamnose isomerase; format: biochemical; conditions: 50° C., L-rhamnose as substrate, purified enzyme
Procedure: The optimal pH of L-rhamnose isomerase derived from Bacillus pallidus was examined. With the use of the purified enzyme, a reaction was carried out at 50° C. using L-rhamnose as a substrate at each pH value.
The optimal pH of L-rhamnose isomerase derived from P. stutzeri was examined. […] With regard to the activity thereof, the optimal pH was present in a range of from pH 7 to around pH 9.

[9] = reaction time 10 minutes; cited from earlier work
[10] = Optimal and working temperature of L-rhamnose isomerase; format: biochemical; conditions: reaction time of 10 minutes
[11] = known properties (Non-patent document 1 / Patent document 1); cited from earlier work
[12] = Temperature stability of L-rhamnose isomerase; format: physicochemical; conditions: heat treatment condition of 1 hour

Molecule: O=C[C@H](O)[C@H](O)[C@H](O)[C@H](O)CO [D-allose]
- activity between D-psicose and D-allose [1]: hardly exhibits an activity
- solubility in methanol and ethanol [2]: insoluble
- solubility in water [2]: readily soluble
- Enzyme derived from P stutzeri (relative activity %) [3]: 7.2%
- Enzyme derived from B. Pallidus (relative activity %) [4]: 5.5% and 5.6%

Molecule: O=C[C@@H](O)[C@@H](O)[C@H](O)CO [D-lyxose]
- Enzyme derived from P stutzeri (relative activity %) [3]: 0.006%
- Enzyme derived from B. Pallidus (relative activity %) [4]: 0.14%

Molecule: O=C(CO)[C@H](O)[C@H](O)[C@H](O)CO [D-psicose]
- activity between D-psicose and D-allose [1]: hardly exhibits an activity
- solubility in methanol and ethanol ([2]; methanol and ethanol): about 10%
- solubility in water ([2]; water): readily soluble

Molecule: O=C(O)CN(CCN(CC(=O)O)CC(=O)O)CC(=O)O [EDTA]
- effect of chelating agent on activity [5]: hardly inhibited

Molecule: O=C(O)CN(CCOCCOCCN(CC(=O)O)CC(=O)O)CC(=O)O [EGTA]
- effect of chelating agent on activity [5]: hardly inhibited

Molecule: O=C[C@H](O)[C@H](O)[C@@H](O)CO [L-lyxose]
- Enzyme derived from P stutzeri (relative activity %) [3]: 43.9% and 43.7%
- Enzyme derived from B. Pallidus (relative activity %) [4]: 23.9%

Molecule: O=C[C@H](O)[C@H](O)[C@@H](O)[C@@H](O)CO [L-mannose]
- Enzyme derived from P stutzeri (relative activity %) [3]: 33.4%
- Enzyme derived from B. Pallidus (relative activity %) [4]: 11%

Molecule: C[C@H](O)[C@H](O)[C@@H](O)[C@@H](O)C=O [L-rhamnose]
- Enzyme derived from P stutzeri (relative activity %) [3]: 100%
- Enzyme derived from B. Pallidus (relative activity %) [4]: 100%

Molecule: [Co+2] [cobalt ion]
- activity inhibited by metal ion ([5]; 1 mM cobalt ion): About 30%
- activity inhibited by metal ion [6]: About 30%

B1: L-rhamnose isomerase produced by Pseudomonas stutzeri LL172: known L-rhamnose isomerase derived from Pseudomonas stutzeri LL172 (FERM BP-08593), amino acid sequence SEQ ID NO: 4 (protein, listed as Pseudomonas stutzeri)
chain: MAEFRIAQDVVARENDRRASALKEDYEALGANLARRGVDIEAVTAKVEKFFVAVPSWGVGTGGTRFARFPGTGEPRGIFDKLDDCAVIQQLTRATPNVSLHIPWDKADPKELKARGDALGLGFDAMNSNTFSDAPGQAHSYKYGSLSHTDAATRAQAVEHNLECIEIGKAIGSKALTVWIGDGSNFPGQSNFTRAFERYLSAMAEIYKGLPDDWKLFSEHKMYEPAFYSTVVQDWGTNYLIAQTLGPKAQCLVDLGHHAPNTNIEMIVARLIQFGKLGGFHFNDSKYGDDDLDAGAIEPYRLFLVFNELVDAEARGVKGFHPAHMIDQSHNVTDPIESLINSANEIRRAYAQALLVDRAALSGYQEDNDALMATETLKRAYRTDVEPILAEARRRTGGAVDPVATYRASGYRARVAAERPASVAGGGGII
- remaining activity ([7]; 50° C. for 10 minutes): ≥ 90%
- temperature stability (stable at) ([7]; 10 minutes): 40 °C
- pH at which the highest activity was exhibited [8]: 9
- temperature of highest activity [9]: 60 °C
- optimal temperature (highest enzymatic activity) [10]: 60 °C
- optimal pH [11]: 9.0
- temperature stability (stable up to) [12]: 40 °C

B2: L-rhamnose isomerase derived from Bacillus pallidus: thermotolerant L-rhamnose isomerase derived from Bacillus pallidus strain 14a (FERM AP-20172), amino acid sequence SEQ ID NO: 2 (protein, listed as Bacillus pallidus)
chain: MVIKESFEIARQVYEKWGINIEEVLENLQQASISIHCWQGDDVKGFEADASELSGGIDVTGNYPGKARNAEELRQDLEKALSLIPGKHRVNLHAIYAETNGEKVERDQLEPKHFENWVNWAKKIGIGLDFNPTLFSHEKAADGLTLSHPDPGIREFWINHCIRSRKIGEYFGKELGTPCLTNIWIPDGYKDIPSDRLTPRKRLKESLDKIFSVEINEKYNLDAVESKLFGIGSESFVVGSHEFYLGYALQNNKIYLLDTGHFHPTETVSNKISSILLYSDRLALHVSRPVRWDSDHVVILDDELREIALEIVRNDALHKVLIGLDFFDASINRLAAWVIGTRNMIKALLYAMLMPHEYLKQLQEKGNFTERLAVMEEFKTYPFGAIWDYYCEKMNVPVREEWLKEIQKYEEEVLTKRQ
- pH at which the highest activity was exhibited [8]: 6
- optimal temperature (highest enzymatic activity) [10]: 80 °C
- optimal temperature higher compared with the L-rhamnose isomerase of LL172 [10]: 20 °C
- optimal temperature higher compared with the L-rhamnose isomerase of LL172 ([10]; listed as thermotolerant L-rhamnose isomerase): about 20 °C
- stable temperature higher compared with the L-rhamnose isomerase of LL172 [12]: 10 °C
- temperature stability (stable up to) [12]: up to 50 °C
